# Where “and” joins values, the source holds several entries; their conditions need not be identical. Equal values may be shown once.
# How the values were obtained:
# PRV = format: cell-based, Pseudorabies virus; conditions: 80 μM TO, 7.4 J/cm^2 cool white light, 20% hematocrit RBCs, 60 min incubation
# extracellular HIV = format: cell-based; conditions: 80 μM TO, 7.4 J/cm^2 cool white light, 20% hematocrit RBCs, 60 min incubation
# Escherichia coli = assay: Bacteria photoinactivation in RBC suspension, colony count; format: cell-based; conditions: 80 μM TO, 7.4 J/cm^2 cool white light, 20% hematocrit RBCs, 60 min incubation
# Serratia marcescens = assay: as above; format: cell-based; conditions: 80 μM TO, 7.4 J/cm^2 cool white light, 20% hematocrit RBCs, 60 min incubation
# Yersinia enterocolitica = assay: as above; format: cell-based; conditions: 80 μM TO, 7.4 J/cm^2 cool white light, 20% hematocrit RBCs, 60 min incubation
# bacteria = assay: Bacteria photoinactivation, tested species overall; format: cell-based; conditions: 80 μM TO, 7.4 J/cm^2 cool white light
# Procedure: Viruses or bacteria were added into approximately 50-60% hematocrit RBCs with subsequent addition of additive solution and TO to obtain 20% final hematocrit containing 80 μM of the dye. The final volume of the pathogen spike was equal to 10% for mammalian viruses and equal to 1% for bacteriophage and bacteria. RBC suspensions containing dye were incubated for 60 minutes and 2 ml aliquots were transferred to polystyrene culture dishes (50 mm bottom diameter) to produce a 1 mm blood film. For some bacterial experiments, RBC suspensions were incubated for different times prior to illumination. […] A fluence rate of 8.2 mW/cm^2 was measured by an optical power meter (model 371, United Detector Technology, Hawthorn, Calif.) equipped with a silicone diode detector and radiometric filter (400-1000 nm, model 115-9, United Detector Technology). […]
# We prepared bacterial stocks by inoculating a single colony into 5 mL of Luria broth (LB) and incubating cultures overnight under aerobic conditions at 30 or 37° C., depending on the strain. […] Colonies were counted after 24-72 hours of incubation at 30 or 37° C., with time and incubation temperature depending on the strain. Colonies were counted from all plates that contained between 1 and 750 colonies per plate. […]
# Staphylococcus aureus = assay: Bacteria photoinactivation in RBC suspension, colony count; format: cell-based; conditions: 80 μM TO, 7.4 J/cm^2 cool white light, 20% hematocrit RBCs, 60 min incubation
# Deinococcus radiodurans = assay: as above; format: cell-based; conditions: 80 μM TO, 7.4 J/cm^2 cool white light, 20% hematocrit RBCs, 60 min incubation
# VSV = format: cell-based; conditions: 80 μM TO, 7.4 J/cm^2 cool white light, 20% hematocrit RBCs, 60 min incubation
# bacteriophage φ6 = assay: Bacteriophage photoinactivation in RBC suspension, plaque assay; format: cell-based; conditions: 80 μM TO, 7.4 J/cm^2 cool white light, 20% hematocrit RBCs, 60 min incubation
# Procedure: Leukodepleted 20% hematocrit RBCs suspended in Erythrosol (RAS-2) were oxygenated, inoculated with test organisms, incubated with TO, and illuminated with 7.4 J/cm^2 of cool white light. Control and treated samples were analyzed by appropriate assay. Identically prepared, but uncontaminated samples were phototreated, concentrated to 45% hematocrit, and assayed for potassium leakage, hemolysis and ATP during storage.
# Viruses or bacteria were added into approximately 50-60% hematocrit RBCs with subsequent addition of additive solution and TO to obtain 20% final hematocrit containing 80 μM of the dye. The final volume of the pathogen spike was equal to 10% for mammalian viruses and equal to 1% for bacteriophage and bacteria. […] A fluence rate of 8.2 mW/cm^2 was measured by an optical power meter (model 371, United Detector Technology, Hawthorn, Calif.) equipped with a silicone diode detector and radiometric filter (400-1000 nm, model 115-9, United Detector Technology). […]
# All virus assays were individually tested for cytotoxicity and interference. […] Log10 reduction values were calculated by subtracting the log10 titer/mL of RBCs with viable virus after illumination, or the log10 limit of detection/mL of RBCs without viable virus after illumination, from the measured log10 titer/mL of unilluminated RBCs.
# intracellular HIV = assay: HIV photoinactivation in RBC suspension, CCRF-CEM coculture and p24 ELISA; format: cell-based, HIV-1; conditions: 80 μM TO, 7.4 J/cm^2 cool white light, 20% hematocrit RBCs, 60 min incubation
# Serratia liquefaciens = assay: Bacteria photoinactivation in RBC suspension, colony count; format: cell-based; conditions: 80 μM TO, 7.4 J/cm^2 cool white light, 20% hematocrit RBCs, 60 min incubation
# enveloped viruses = format: cell-based
# Pseudomonas fluorescens = assay: Bacteria photoinactivation in RBC suspension, colony count; format: cell-based; conditions: 80 μM TO, 7.4 J/cm^2 cool white light, 20% hematocrit RBCs, 60 min incubation
# BVDV = format: cell-based, Bovine viral diarrhea virus
# [1] = test system: Staphylococcus epidermidis; assay: Bacteria photoinactivation in RBC suspension, colony count; format: cell-based; conditions: 80 μM TO, 7.4 J/cm^2 cool white light, 20% hematocrit RBCs, 60 min incubation
# model viruses = conditions: dimethylmethylene blue phototreatment with quinacrine as competitive membrane binding inhibitor; cited from earlier work
smiles,measurement,setting,value
"CN1/C(=C/c2cc[n+](C)c3ccccc23)Sc2ccccc21.Cc1ccc(S(=O)(=O)[O-])cc1 [TO, 1-methyl-4-[(3-methyl-2(3H)-benzothiazolylidene)methyl]quinoliniump-tosylate]","Inactivation Log10, PRV",PRV,5.4 log10 and 5.4±0.7 log10 and 5.4 ± 0.7 (n = 4) log10
same,"Inactivation Log10, extracellular HIV",extracellular HIV,>6.5 (n = 3) log10
same,"Inactivation Log10, Escherichia coli",Escherichia coli,5.3 log10 and 5.3 ± 2.0 (n = 4) log10
same,"Inactivation Log10, Serratia marcescens",Serratia marcescens,3.5 log10 and 3.5 ± 2.5 (n = 3) log10
same,"Inactivation Log10, Yersinia enterocolitica",Yersinia enterocolitica,6.4 log10 and 6.4 ± 2.0 (n = 4) log10
same,"inactivation of bacteria, another four (more resistant) species",bacteria,2-3 log10
same,"inactivation of bacteria, four (sensitive) species",bacteria,5-7 log10
same,"Inactivation Log10, Staphylococcus aureus",Staphylococcus aureus,2.4 log10 and 2.4 ± 0.7 (n = 4) log10
same,"Inactivation Log10, Deinococcus radiodurans",Deinococcus radiodurans,>6.8 (n = 3) log10
same,"Inactivation Log10, VSV",VSV,7.1 log10 and 7.1±0.2 log10 and 7.1 ± 0.2 (n = 4) log10
same,"Inactivation Log10, bacteriophage φ6",bacteriophage φ6,6.7 log10 and 6.7±0.7 log10 and 6.7 ± 0.7 (n = 3) log10
same,"Inactivation Log10, intracellular HIV",intracellular HIV,>6.3 (n = 3) log10
same,"Inactivation Log10, Serratia liquefaciens",Serratia liquefaciens,2.8 log10 and 2.8 ± 0.6 (n = 4) log10
same,inactivation of tested enveloped viruses,enveloped viruses,5.1-7.4 log10
same,"Inactivation Log10, Pseudomonas fluorescens",Pseudomonas fluorescens,2.3 log10 and 2.3 ± 1.2 (n = 4) log10
same,day 42 hemolysis in ADSOL additive solution,RBCs,1.6±0.6%
same,"hemolysis levels during storage, TO versus TP phototreated RBCs",RBCs,similar
same,"hemolysis on day 42, TO maintained in the dark",RBCs,0.31%
same,"Inactivation Log10, BVDV",BVDV,6.2 log10 and 6.2±0.1 log10 and 6.2 ± 0.1 (n = 3) log10
same,"Inactivation Log10, Staphylococcus epidermidis",[1],>7.0 (n = 4) log10
Cc1cc(=[N+](C)C)cc2sc3cc(N(C)C)cc(C)c3nc1-2.[Cl-] [dimethylmethylene blue],reduction of model viruses,model viruses,> 6 log10

# Source: patent US7678538B2, “Disinfection of biological fluids using asymmetric cyanine dyes” (American National Red Cross, priority 2005, dated 2010)
